Earlier results, collected in US20090239289A1, “Drain Foam Composition and Method of Using the Same” (priority 2008, published 2009).

CC(COc1ccc(Oc2ccccc2)cc1)Oc1ccccn1 (stereo not shown) [Nylar, 2-[1-methyl-2(4-phenoxyphenoxy)ethoxy]pyridine]
residual when used outdoors: about 30 days
